Laboratory results published in patent US20070213339A1 (Bayer Pharmaceuticals Corporation, priority 2004, published 2007).

tested on: Colo205 human colon carcinoma cell line; assay: In vitro tumor cell proliferation assay (MTS, CellTiter 96 Aqueous One Solution); format: cell-based; conditions: COLO 205, Colo205 cells, 72 hours compound exposure, MTS absorbance at 490 nm, read-out: IC50 (concentration of test compound required to inhibit proliferation of 50% of the cells)
Description: In Vitro Tumor Cell Proliferation Assay
The adherent H460 human non-small cell lung carcinoma and Colo205 human colon carcinoma cell lines were purchased from the American Type and Culture Collection (ATCC, Manassas, Va.) and maintained in RPMI-1640 growth media supplemented with 10% heat inactivated fetal bovine serum (Gibco, Invitrogen Corp. Grand Island, N.Y.). At 37° C. in a humidified atmosphere of 5% CO2.
The CellTiter 960 Aqueous One Solution kit, MTS, (Promega, Madison, Wis.) was used to measure proliferation of tumor cell lines in vitro. This method monitors the bioreduction of a tetrazolium dye as a measure of cell viability. On Day 0, exponentially growing cells were trypsinized, resuspended in RPMI-1640 growth media supplemented with 10% FCS, 100 u/ml of penicillin G and 100 ug/ml of streptomycin sulfate, and seeded at 2000 cells per well into 96 well microtiter plates. Cells were incubated overnight in a humidified atmosphere of 5% CO2 at 37° C. On Day 1, serial dilutions of compounds were prepared at 2× the finial assay concentration. One hundred microliters of 2× solution was added to test wells in duplicate and control wells received no test compound. The final drug concentration ranged from 0 to 10-20 um in a 5 point dose-response curve. Cells were incubated in the presence of test compounds in a humidified atmosphere of 5% CO2 at 37° C. for 72 hours. After 72 hours of compound exposure, 40 ul of Promega CellTiter 960 Aqueous One Solution was added to each well and absorbance at 490 n-M was measured using a multi-well plate reader. Percent inhibition of proliferation was calculated using the following formula: 100×(1−Absorbancetreated−Background/(Absorbancecontrol−Background)
Absorbancetreated=absorbance at 490 nm in test wells, cells with test compound
Absorbancecontrol=absorbance at 490 nm in control wells, cells with no test compound
Background=absorbance 490 nm in wells containing media and no cells
The concentration of test compound required to inhibit proliferation of 50% of the cells (IC50) was determined by linear regression analysis.
Representative compounds of the invention were tested in the above-described Colo205 human colon carcinoma cell line in vitro assay and found to inhibit human colon carcinoma cell proliferation, and are summarized as follows: […]

IC50 [µM] | SMILES
< 0.5 | COC[C@H]1CCCN1Cc1ccc(-n2cc(C(=O)O)c(=O)c3cc(F)c(N4CCN(c5ccc(F)cc5)CC4)c(Cl)c32)cc1 [Example 23, 8-chloro-6-fluoro-7-[4-(4-fluorophenyl)-piperazin-1-yl]-1-(4-{[(2R)-2-(methoxymethyl)pyrrolidin-1-yl]methyl}phenyl)-4-oxo-1,4-dihydroquinoline-3-carboxylic acid]
< 0.5 | O=C(O)c1cn(-c2ccc(CN3CCCC3)cc2F)c2c(Cl)c(N3CCN(c4ccccc4)CC3)c(F)cc2c1=O [Example 43, 8-chloro-6-fluoro-1-[2-fluoro-4-(pyrrolidin-1-ylmethyl)phenyl]-4-oxo-7-(4-phenylpiperazin-1-yl)-1,4-dihydroquinoline-3-carboxylic acid]
0.5 to 2 | COc1c(N2CCN(c3ccccc3[N+](=O)[O-])CC2)c(F)cc2c(=O)c(C(=O)O)cn(-c3ccc(CN4CCCC4)cc3)c12 [Example 84, 6-fluoro-8-methoxy-7-[4-(2-nitrophenyl)-piperazin-1-yl]-4-oxo-1-[4-(pyrrolidin-1-ylmethyl)phenyl]-1,4-dihydroquinoline-3-carboxylic acid]
< 0.5 | C[C@H]1CCCCN1Cc1ccc(-n2cc(C(=O)O)c(=O)c3cc(F)c(N4CCN(c5ncccn5)CC4)c(OC(F)(F)F)c32)cc1 [Example 139, 6-fluoro-1-(4-{[(2S)-2-methylpiperidin-1-yl]methyl}phenyl)-4-oxo-7-(4-pyrimidin-2-ylpiperazin-1-yl)-8-(trifluoromethoxy)-1,4-dihydroquinoline-3-carboxylic acid]
0.5 to 2 | COc1c(N2CCN(c3ccccc3[N+](=O)[O-])CC2)c(F)cc2c(=O)c(C(=O)O)cn(-c3ccc(CN4CCCCC4)cc3)c12 [Example 91, 6-fluoro-8-methoxy-7-[4-(2-nitrophenyl)-piperazin-1-yl]-4-oxo-1-[4-(piperidin-1-ylmethyl)phenyl]-1,4-dihydroquinoline-3-carboxylic acid]
< 0.5 | CCN(CC)Cc1ccc(-n2cc(C(=O)O)c(=O)c3cc(F)c(N4CCN(c5cccc(Cl)c5)CC4)c(OC)c32)cc1 [Example 115, 7-[4-(3-chlorophenyl)piperazin-1-yl]-1-{4-[(diethylamino)methyl]phenyl}-6-fluoro-8-methoxy-4-oxo-1,4-dihydroquinoline-3-carboxylic acid]
2 to 20 | COc1c(N2CCN(c3ccc(C(F)(F)F)cc3)CC2)c(F)cc2c(=O)c(C(=O)O)cn(-c3ccc(CN(C)C)cc3)c12 [Example 100, 1-{4-[(dimethylamino)methyl]phenyl}-6-fluoro-8-methoxy-4-oxo-7-{4-[4-(trifluoromethyl)phenyl]piperazin-1-yl}-1,4-dihydroquinoline-3-carboxylic acid]
< 0.5 | O=C(O)c1cn(-c2ccc(CN3CCCC3)cc2F)c2c(Cl)c(N3CCN(c4ccc(Cl)cc4)CC3)c(F)cc2c1=O [Example 42, 8-chloro-7-[4-(4-chlorophenyl)piperazin-1-yl]-6-fluoro-1-[2-fluoro-4-(pyrrolidin-1-ylmethyl)phenyl]-4-oxo-1,4-dihydroquinoline-3-carboxylic acid]
< 0.5 | CCN(CC)Cc1ccc(-n2cc(C(=O)O)c(=O)c3cc(F)c(N4CCN(c5ccc(Cl)cc5)CC4)c(OC)c32)cc1 [Example 118, 7-[4-(4-chlorophenyl)piperazin-1-yl]-1-{4-[(diethylamino)methyl]phenyl}-6-fluoro-8-methoxy-4-oxo-1,4-dihydroquinoline-3-carboxylic acid]
0.5 to 2 | COc1ccccc1N1CCN(c2c(F)cc3c(=O)c(C(=O)O)cn(-c4ccc(CN(C)C)cc4)c3c2OC)CC1 [Example 99, 1-{4-[(dimethylamino)methyl]phenyl}-6-fluoro-8-methoxy-7-[4-(2-methoxyphenyl)piperazin-1-yl]-4-oxo-1,4-dihydroquinoline-3-carboxylic acid]
< 0.5 | Cc1cccnc1N1CCN(c2c(F)cc3c(=O)c(C(=O)O)cn(-c4ccc(CN5CCCC5)cc4F)c3c2Cl)CC1 [Example 44, 8-chloro-6-fluoro-1-[2-fluoro-4-(pyrrolidin-1-ylmethyl)phenyl]-7-[4-(3-methylpyridin-2-yl)piperazin-1-yl]-4-oxo-1,4-dihydroquinoline-3-carboxylic acid]
2 to 20 | O=C(O)c1cn(-c2cccc(CN3CCCCC3)c2)c2c(Cl)c(N3CCN(c4ncccn4)CC3)c(F)cc2c1=O [Example 66, 8-chloro-6-fluoro-4-oxo-1-[3-(piperidin-1-yl-methyl)phenyl]-7-(4-pyrimidin-2-ylpiperazin-1-yl)-1,4-dihydroquinoline-3-carboxylic acid]
< 0.5 | O=C(O)c1cn(-c2ccc(CN3CCCC3)nc2)c2c(Cl)c(N3CCN(c4ccc(Cl)cc4)CC3)c(F)cc2c1=O [Example 38, 8-chloro-7-[4-(4-chlorophenyl)piperazin-1-yl]-6-fluoro-4-oxo-1-[6-(pyrrolidin-1-ylmethyl)pyridin-3-yl]-1,4-dihydroquinoline-3-carboxylic acid]

The remaining lines, values behind:

SMILES | IC50 [µM]
O=C(O)c1cn(-c2cccc(CN3CCCCC3)c2)c2c(Cl)c(N3CCN(c4ccccc4F)CC3)c(F)cc2c1=O [Example 63, 8-chloro-6-fluoro-7-[4-(2-fluorophenyl)-piperazin-1-yl]-4-oxo-1-[3-(piperidin-1-ylmethyl)phenyl]-1,4-dihydroquinoline-3-carboxylic acid] | 2 to 20
O=C(O)c1cn(-c2cccc(CN3CCCCC3)c2)c2c(OC(F)(F)F)c(N3CCN(c4ncccn4)CC3)c(F)cc2c1=O [Example 143, 6-fluoro-4-oxo-1-[3-(piperidin-1-yl-methyl)phenyl]-7-(4-pyrimidin-2-ylpiperazin-1-yl)-8-(trifluoromethoxy)-1,4-dihydroquinoline-3-carboxylic acid] | 0.5 to 2
O=C(O)c1cn(-c2ccc(CNC3CCCC3)cc2)c2c(OC(F)(F)Cl)c(N3CCN(c4ccccn4)CC3)c(F)cc2c1=O [Example 180, 8-(chloro-difluoromethoxy)-1-(4-cyclopentylaminomethyl-phenyl)-6-fluoro-4-oxo-7-(4-pyridin-2-yl-piperazin-1-yl)-1,4-dihydroquinoline-3-carboxylic acid] | < 0.5
CN(C)Cc1ccc(-n2cc(C(=O)O)c(=O)c3cc(F)c(N4CCN(c5ncccn5)CC4)c(OC(F)(F)F)c32)cc1 [Example 128, 1-{4-[(dimethylamino)methyl]phenyl}-6-fluoro-4-oxo-7-(4-pyrimidin-2-ylpiperazin-1-yl)-8-(trifluoromethoxy)-1,4-dihydroquinoline-3-carboxylic acid] | < 0.5
CCOc1ccc(N2CCN(c3c(F)cc4c(=O)c(C(=O)O)cn(-c5ccc(CN6CCCC6)cc5)c4c3Cl)CC2)cc1 [Example 12, 8-chloro-7-[4-(4-ethoxyphenyl)piperazin-1-yl]-6-fluoro-4-oxo-1-[4-(pyrrolidin-1-ylmethyl)phenyl]-1,4-dihydroquinoline-3-carboxylic acid] | 2 to 20
CCN(CC)Cc1ccc(-n2cc(C(=O)O)c(=O)c3cc(F)c(N4CCN(c5ncccc5C#N)CC4)c(OC)c32)cc1 [Example 113, 7-[4-(3-cyanopyridin-2-yl)piperazin-1-yl]-1-{4-[(diethylamino)methyl]phenyl}-6-fluoro-8-methoxy-4-oxo-1,4-dihydroquinoline-3-carboxylic acid] | < 0.5
COc1c(N2CCN(c3ccccn3)CC2)c(F)cc2c(=O)c(C(=O)O)cn(-c3ccc(CN4CCCCC4)cc3)c12 [Example 194, 6-fluoro-8-methoxy-4-oxo-1-(4-piperidin-1-ylmethyl-phenyl)-7-(4-pyridin-2-yl-piperazine-1-yl]-1,4-dihydroquinoline-3-carboxylic acid] | < 0.5
O=C(O)c1cn(-c2ccc(CN3CCCC3)nc2)c2c(Cl)c(N3CCN(c4ccc(F)cc4)CC3)c(F)cc2c1=O [Example 37, 8-chloro-6-fluoro-7-[4-(4-fluorophenyl)-piperazin-1-yl]-4-oxo-1-[6-(pyrrolidin-1-ylmethyl)pyridin-3-yl]-1,4-dihydroquinoline-3-carboxylic acid] | < 0.5
CCN(CC)Cc1ccc(-n2cc(C(=O)O)c(=O)c3cc(F)c(N4CCN(c5ccccc5Cl)CC4)c(OC)c32)cc1 [Example 109, 7-[4-(2-chlorophenyl)piperazin-1-yl]-1-{4-[(diethylamino)methyl]phenyl}-6-fluoro-8-methoxy-4-oxo-1,4-dihydroquinoline-3-carboxylic acid] | 0.5 to 2
COc1c(N2CCN(c3ccc(C#N)cc3)CC2)c(F)cc2c(=O)c(C(=O)O)cn(-c3ccc(CN4CCCCC4)cc3)c12 [Example 192, 7-[4-(4-cyanophenyl)-piperazine-1-yl]-6-fluoro-8-methoxy-4-oxo-1-(4-piperidin-1-ylmethyl-phenyl)-1,4-dihydroquinoline-3-carboxylic acid] | < 0.5
